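Cells were grown in 96-well plates and exposed to each compound for 48 hours at five concentrations; endpoints were interpolated linearly between bracketing concentrations, or set to the highest concentration if not reached. The concentration for 50% growth inhibition is given as GI50. TGI: total growth inhibition.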
What was measured:
Test in all cases: NCI tumour cell line growth inhibition, 48 h
SNB-75 CNS = tested on: SNB-75 CNS
SF-539 CNS = tested on: SF-539 CNS
M14 melanoma = tested on: M14 melanoma
A498 renal = tested on: A498 renal
RPMI-8226 leukemia = tested on: RPMI-8226 leukemia
NCI-H460 lung = tested on: NCI-H460 lung
K-562 leukemia = tested on: K-562 leukemia
DU-145 prostate = tested on: DU-145 prostate
HS 578T breast = tested on: HS 578T breast
SK-MEL-5 melanoma = tested on: SK-MEL-5 melanoma
T-47D breast = tested on: T-47D breast
MDA-MB-435 = tested on: MDA-MB-435
MDA-MB-231 breast = tested on: MDA-MB-231 breast
U251 CNS = tested on: U251 CNS
HL-60(TB) leukemia = tested on: HL-60(TB) leukemia
UO-31 renal = tested on: UO-31 renal
SN12C renal = tested on: SN12C renal
TK-10 renal = tested on: TK-10 renal
A549 NSCLC = tested on: A549 NSCLC
NCI/ADR-RES ovarian = tested on: NCI/ADR-RES ovarian
PC-3 prostate = tested on: PC-3 prostate
HCT-15 colon = tested on: HCT-15 colon
IGROV1 ovarian = tested on: IGROV1 ovarian
SK-MEL-2 melanoma = tested on: SK-MEL-2 melanoma
NCI-H522 lung = tested on: NCI-H522 lung
SW-620 colon = tested on: SW-620 colon
UACC-62 melanoma = tested on: UACC-62 melanoma
SF-268 CNS = tested on: SF-268 CNS
HCT-116 colon = tested on: HCT-116 colon
CCRF-CEM leukemia = tested on: CCRF-CEM leukemia
BT-549 breast = tested on: BT-549 breast
UACC-257 melanoma = tested on: UACC-257 melanoma
KM12 colon = tested on: KM12 colon
RXF 393 renal = tested on: RXF 393 renal
SK-OV-3 ovarian = tested on: SK-OV-3 ovarian
OVCAR-4 ovarian = tested on: OVCAR-4 ovarian
ACHN renal = tested on: ACHN renal
COLO 205 colon = tested on: COLO 205 colon
HT29 colon = tested on: HT29 colon
HOP-62 NSCLC = tested on: HOP-62 NSCLC
OVCAR-8 ovarian = tested on: OVCAR-8 ovarian
OVCAR-5 ovarian = tested on: OVCAR-5 ovarian
MCF7 breast = tested on: MCF7 breast
786-0 renal = tested on: 786-0 renal
SNB-19 CNS = tested on: SNB-19 CNS
HOP-92 NSCLC = tested on: HOP-92 NSCLC
SK-MEL-28 melanoma = tested on: SK-MEL-28 melanoma
LOX IMVI melanoma = tested on: LOX IMVI melanoma
SF-295 CNS = tested on: SF-295 CNS
NCI-H226 lung = tested on: NCI-H226 lung
MALME-3M melanoma = tested on: MALME-3M melanoma
HCC-2998 colon = tested on: HCC-2998 colon
EKVX NSCLC = tested on: EKVX NSCLC
CAKI-1 renal = tested on: CAKI-1 renal

## CS(=O)(=O)c1nccc(-c2c(-c3cccc(OCc4ccc(Cl)c(C(F)(F)F)c4)c3)nc3sccn23)n1
SNB-75 CNS
  GI50: 6.74 µM
  TGI: 17.9 µM
SF-539 CNS
  GI50: 7.64 µM
  TGI: 15 µM
M14 melanoma
  GI50: 6.93 µM
  TGI: 14.1 µM
A498 renal
  GI50: 7.15 µM
  TGI: 13.8 µM
RPMI-8226 leukemia
  GI50: 1.33 µM
  TGI: 3.64 µM
NCI-H460 lung
  GI50: 2 µM
  TGI: 7.28 µM
K-562 leukemia
  GI50: 2.1 µM
  TGI: > 50 µM
DU-145 prostate
  GI50: 5.01 µM
  TGI: 10.8 µM
HS 578T breast
  GI50: 1.69 µM
  TGI: 8.73 µM
SK-MEL-5 melanoma
  GI50: 7.98 µM
  TGI: 14.9 µM
T-47D breast
  GI50: 0.881 µM
  TGI: 1.82 µM
MDA-MB-435
  GI50: 9.02 µM
  TGI: 17.9 µM
MDA-MB-231 breast
  GI50: 1.07 µM
  TGI: 2.38 µM
U251 CNS
  GI50: 7.53 µM
  TGI: 14.4 µM
HL-60(TB) leukemia
  GI50: 0.997 µM
  TGI: 2.52 µM
UO-31 renal
  GI50: 7.16 µM
  TGI: 13.7 µM
SN12C renal
  GI50: 7.07 µM
  TGI: 23.1 µM
TK-10 renal
  GI50: 7.99 µM
  TGI: 14.9 µM
A549 NSCLC
  GI50: 18.1 µM
  TGI: > 50 µM
NCI/ADR-RES ovarian
  GI50: 9 µM
  TGI: 19.1 µM
PC-3 prostate
  GI50: 1.8 µM
  TGI: 6.61 µM
HCT-15 colon
  GI50: 1.02 µM
  TGI: 2.42 µM
IGROV1 ovarian
  GI50: 1.64 µM
  TGI: 5.95 µM
SK-MEL-2 melanoma
  GI50: 3.31 µM
  TGI: 9.61 µM
NCI-H522 lung
  GI50: 1.65 µM
  TGI: 8.06 µM
SW-620 colon
  GI50: 1.79 µM
  TGI: 6.84 µM
UACC-62 melanoma
  GI50: 8.49 µM
  TGI: 16.9 µM
SF-268 CNS
  GI50: 8.49 µM
  TGI: 17.6 µM
HCT-116 colon
  GI50: 6.53 µM
  TGI: 12.9 µM
CCRF-CEM leukemia
  GI50: 1.67 µM
  TGI: > 50 µM
BT-549 breast
  GI50: 1.52 µM
  TGI: 5.51 µM
UACC-257 melanoma
  GI50: 4.04 µM
  TGI: 10.8 µM
KM12 colon
  GI50: 9.47 µM
  TGI: 17.8 µM
RXF 393 renal
  GI50: 4.31 µM
  TGI: 10.9 µM
SK-OV-3 ovarian
  GI50: 10.3 µM
  TGI: 33.7 µM
OVCAR-4 ovarian
  GI50: 6.46 µM
  TGI: 13.8 µM
ACHN renal
  GI50: 5.6 µM
  TGI: 11.6 µM
COLO 205 colon
  GI50: 7.02 µM
  TGI: 13.9 µM
HT29 colon
  GI50: 7.99 µM
  TGI: 16.3 µM
HOP-62 NSCLC
  GI50: 7.26 µM
  TGI: 14.1 µM
OVCAR-8 ovarian
  GI50: 7.09 µM
  TGI: 13.8 µM
OVCAR-5 ovarian
  GI50: 8.78 µM
  TGI: 18.8 µM
MCF7 breast
  GI50: 0.937 µM
  TGI: 1.98 µM
786-0 renal
  GI50: 8.45 µM
  TGI: 15.3 µM
SNB-19 CNS
  GI50: 6.53 µM
  TGI: 13 µM
HOP-92 NSCLC
  GI50: 2.17 µM
  TGI: 9.74 µM
SK-MEL-28 melanoma
  GI50: 6.48 µM
  TGI: 13.1 µM
LOX IMVI melanoma
  GI50: 0.809 µM
  TGI: 1.63 µM
SF-295 CNS
  GI50: 7.15 µM
  TGI: 15.2 µM
NCI-H226 lung
  GI50: 2.4 µM
  TGI: 11.9 µM
MALME-3M melanoma
  GI50: 7.27 µM
  TGI: 14.6 µM
HCC-2998 colon
  GI50: 0.91 µM
  TGI: 1.68 µM
EKVX NSCLC
  GI50: 6.92 µM
  TGI: 14.4 µM
CAKI-1 renal
  GI50: 7.54 µM
  TGI: 14.7 µM

## Nc1nc(N)c2c(n1)NC(c1ccccc1)CC(c1ccc(Nc3nc(NCCO)nc(Nc4ccc(Cl)cc4)n3)cc1)=N2 (configuration not stated)
SNB-75 CNS
  GI50: 1.56 µM
  TGI: 3.13 µM
SF-539 CNS
  GI50: 1.6 µM
  TGI: 3.06 µM
M14 melanoma
  GI50: 1.84 µM
  TGI: 3.35 µM
A498 renal
  GI50: 1.54 µM
  TGI: 3.03 µM
NCI-H460 lung
  GI50: 1.85 µM
  TGI: 3.47 µM
DU-145 prostate
  GI50: 1.8 µM
  TGI: 3.38 µM
HS 578T breast
  GI50: 1.98 µM
  TGI: 5.15 µM
SK-MEL-5 melanoma
  GI50: 1.42 µM
  TGI: 2.72 µM
T-47D breast
  GI50: 1.52 µM
  TGI: 3.32 µM
MDA-MB-435
  GI50: 1.74 µM
  TGI: 3.17 µM
MDA-MB-231 breast
  GI50: 1.75 µM
  TGI: 3.48 µM
U251 CNS
  GI50: 1.53 µM
  TGI: 2.99 µM
HL-60(TB) leukemia
  GI50: 0.319 µM
  TGI: 1.48 µM
UO-31 renal
  GI50: 1.87 µM
  TGI: 4.29 µM
SN12C renal
  GI50: 1.74 µM
  TGI: 3.54 µM
TK-10 renal
  GI50: 2.09 µM
  TGI: 3.87 µM
A549 NSCLC
  GI50: 2.84 µM
  TGI: 9.18 µM
NCI/ADR-RES ovarian
  GI50: 4.33 µM
  TGI: > 100 µM
HCT-15 colon
  GI50: 1.38 µM
  TGI: 2.84 µM
IGROV1 ovarian
  GI50: 1.56 µM
  TGI: 3.13 µM
SK-MEL-2 melanoma
  GI50: 1.38 µM
  TGI: 2.78 µM
NCI-H522 lung
  GI50: 1.79 µM
  TGI: 3.48 µM
SW-620 colon
  GI50: 1.87 µM
  TGI: 3.48 µM
UACC-62 melanoma
  GI50: 1.84 µM
  TGI: 3.32 µM
HCT-116 colon
  GI50: 1.51 µM
  TGI: 2.84 µM
BT-549 breast
  GI50: 1.77 µM
  TGI: 3.2 µM
UACC-257 melanoma
  GI50: 1.9 µM
  TGI: 3.49 µM
KM12 colon
  GI50: 1.9 µM
  TGI: 3.54 µM
SK-OV-3 ovarian
  GI50: 17.7 µM
  TGI: 32 µM
OVCAR-4 ovarian
  GI50: 1.72 µM
  TGI: 3.76 µM
ACHN renal
  GI50: 1.95 µM
  TGI: 4.36 µM
COLO 205 colon
  GI50: 1.79 µM
  TGI: 3.31 µM
HT29 colon
  GI50: 1.77 µM
  TGI: 3.33 µM
HOP-62 NSCLC
  GI50: 1.74 µM
  TGI: 3.24 µM
OVCAR-8 ovarian
  GI50: 1.46 µM
  TGI: 3.1 µM
OVCAR-5 ovarian
  GI50: 1.94 µM
  TGI: 3.75 µM
MCF7 breast
  GI50: 1.51 µM
  TGI: 3.04 µM
786-0 renal
  GI50: 1.63 µM
  TGI: 3.08 µM
SNB-19 CNS
  GI50: 1.58 µM
  TGI: 2.99 µM
HOP-92 NSCLC
  GI50: 1.42 µM
  TGI: 3.09 µM
SK-MEL-28 melanoma
  GI50: 1.73 µM
  TGI: 3.12 µM
LOX IMVI melanoma
  GI50: 1.54 µM
  TGI: 2.95 µM
SF-295 CNS
  GI50: 1.57 µM
  TGI: 2.97 µM
NCI-H226 lung
  GI50: 11.5 µM
  TGI: 31.3 µM
HCC-2998 colon
  GI50: 1.68 µM
  TGI: 3.1 µM
EKVX NSCLC
  GI50: 1.64 µM
  TGI: 3.17 µM
CAKI-1 renal
  GI50: 2.3 µM
  TGI: 5.79 µM

Reference: PubChem BioAssay (NCI)
